According to US5387600A, “Treating arteriosclerosis using benzimidazole compositions” (priority 1992, dated 1995):
Read-outs that look alike come from different tables or passages of the source.

Tests used:
[1] = tested on: mouse abdominal cavity macrophage; assay: In vitro test for suppressing effect of macrophage-foaming reaction; assay type: cell-based; conditions: compared with control; for activity at 5 µM: Mus musculus, Macrophage, 16 h
Protocol: (1) In vitro test for suppressing effect of macrophage-foaming reaction using mouse abdominal cavity macrophage
A 15-week old ICR female mouse (Japan SLC) was amputated at its neck and exsanguinated. Then, Hanks buffer (Nissui Pharmaceutical Co., Ltd.) was injected intraperitoneally. After massaging the abdominal part, the buffer was recovered rapidly and centrifuged at 1,000 rpm for 5 minutes to collect the abdominal cavity macrophage. Then, the collected abdominal cavity macrophage was suspended in GIT medium (Wako Pure Chemical Industry) and inoculated on a 24-well microplate. After culturing the macrophage for 2 hours at 37° C. in 5% CO2, the medium was changed into Dulbecco modified Eagle's MEM medium (Nissui Pharmaceutical Co., Ltd.). After further culturing the macrophage for 16 hours at 37° C. in 5% CO2, the following substances were added in order:
1 Test compounds: solutions in DMSO (Wako Pure Chemical Industry) 1 ml of the solutions were prepared, optionally diluted and the diluted solutions were added to individual wells (500 μl) in the amount of 5μl.
PC: phosphatidylcholine (Funakoshi)
PS: phosphatidylserine (Funakoshi)
DCP: dicetylphosphate (Funakoshi)
CHOL.: cholesterol (Sigma)
3 ^3 H-Oleic acid (Amersham Japan)
Then, after still further culturing the macrophage for 16 hours at 37° C. in 5% CO2, the lipid fraction was extracted with chloroform and methanol. The extracted lipid fraction was subjected to TLC (hexane:ether:acetic acid=70:30:1), the separated bands of CE (cholesterylester) and TG (triglyceride) were borne off from the TLC plate and then the radioactivities thereof were measured using a liquid scintillation counter (PACKARD BH-22). Yields of cholesteryl ester were calculated by comparing with a control.

Acute toxicity test = conditions: mouse, in vivo; oral, suspension in 0.5% Tween 80, 8-week old ddy mice
Source text: Compounds (8) and (53) each was suspended in 0.5% Tween 80 solution. Six 8-week old ddy mice were orally administered the suspensions respectively and were observed on acute toxicity.

[2] = tested on: rabbit fed high-cholesterol feed; assay: Blood lipid lowering effect in rabbit fed high-cholesterol feed; assay type: in vivo; conditions: New Zealand White female rabbits, 100 mg/kg/day in feed for 7 successive days
Source text: (2) Blood lipid lowering effect in rabbit fed high-cholesterol feed (i) New Zealand White female rabbits having body weight of about 2 kg were fed feed having high cholesterol content (100 g/day/rabbit: ORC-4 manufactured by Oriental Yeast, containing 0.5% of cholesterol and 0.5% of olive oil) for 7 days to produce hypercholesterolemia.
(§1) Subsequently, one group consisting of 3 rabbits (treatment group) was fed the same feed in the same amount, except that the feed further contained test compound (8) in the amount of 100 mg/kg/day/rabbit, for 7 successive days. On the other hand, as a control, another group consisting of 3 rabbits was fed the same feed in the same amount without any test compound.
(§2) A small amount of blood was drawn from the parotic vein of every rabbit once a week and was measured for amount of blood total cholesterol using IATROLIPO TC manufactured by Iatron Laboratories Inc.
Thus, it is clear that test compound (8) has an excellent lowering effect of the blood cholesterol. (ii) New Zealand White female rabbits having body weight of about 2 kg were fed feed having high cholesterol content (100 g/day/rabbit: ORC-4 manufactured by Oriental Yeast, containing 0.5% of cholesterol and 0.5% of olive oil) for 7 days to produce hypercholesterolemia. […]

rabbit fed normal feed = assay: Blood lipid lowering effect in rabbit fed normal feed; assay type: in vivo; conditions: New Zealand White female rabbits, 100 mg/kg/day in feed for 7 successive days
Protocol: (3) Blood lipid lowering effect in rabbit fed normal feed (i) New Zealand White female rabbits having body weight of about 2 kg were fed normal feed (100 g/day/rabbit: ORC-4 manufactured by Oriental Yeast) for 7 days.
as §1, with “fed the normal feed in” for “fed the same feed in”, “successive days. As a control,” for “successive days. On the other hand, as a control,”
A Small amount of blood was drawn from the parotic vein of every rabbit once a week and was measured for amount of blood total cholesterol using IATROLIPO TC manufactured by Iatron Laboratories Inc.
Thus, it is clear that test compound (8) has an excellent blood cholesterol lowering effect not only on rabbits fed high-cholesterol feed but also on rabbits fed normal feed. (ii) New Zealand White female rabbits having body weight of about 2 kg were fed normal feed (100 g/day/rabbit: ORC-4 manufactured by Oriental Yeast) for 7 days. […]
as §2

[3] = tested on: rabbit fed feed having high cholesterol content; assay: Arteriosclerosis focus formation-regressing effect in rabbit fed feed having high cholesterol content; assay type: in vivo; conditions: 100 mg/kg/day in feed for 20 successive days
Source text: (4) Arteriosclerosis focus formation-regressing effect in rabbit fed feed having high cholesterol content
New Zealand White female rabbits having body weight of about 2 kg were fed feed having high cholesterol content (100 g/day/rabbit: ORC-4 manufactured by Oriental Yeast, containing 0.5% of cholesterol and 0.5% of olive oil) for 7 days to produce hypercholesterolemia.
as §1, with “(53)” for “(8)”, “20” for “7”
After 20 weeks from the administration of the test compound, the aortas and arch part thereof were removed from each rabbit and the blood vessels were opened. Comparing the treatment group with the control group, it was observed that the arteriosclerosis focus formation was suppressed effectively in the treatment group.

[4] = cholesteryl ester from 3H-oleic acid, read-out: Yield of CE (%)
[5] = triglyceride from 3H-oleic acid, read-out: Yield of TG (%)

In the case of `CCCCCCCCS(=O)(=O)Nc1ccc2[nH]c(S)nc2c1` [(21)], the activity at 5 µM [1, 4] is reported as 64% and the activity at 5 µM [1, 5] is reported as 93%.

For `CN1C(=O)C(Cl)C(Sc2nc3ccccc3[nH]2)N(C)C1=O` (stereo not drawn) [(42)], the “Yield of CE (%)” value ([1]; 5 μM, cholesteryl ester from 3H-oleic acid, 960 min) was 61% and the “Yield of TG (%)” value ([1]; 5 μM, triglyceride from 3H-oleic acid, 960 min) was 96%.

For `CCCCCCCCCCCCNS(=O)(=O)c1ccc2[nH]c(S)nc2c1` [(12)], the activity at 5 µM [1, 4] was 52% and the activity at 5 µM [1, 5] was 102%.

With `CCCC(c1cc(C(C)(C)C)cc(C(C)(C)C)c1O)c1cc(C(C)(C)C)cc(C(C)(C)C)c1O` [(56)] the activity at 5 µM [1, 4] was 51% and the activity at 5 µM [1, 5] was 102%.

`CCCCCCCCCCCC(=O)Nc1ccc2[nH]c(SC)nc2c1` [(28)] showed an activity at 5 µM [1, 4] of 53% and an activity at 5 µM [1, 5] of 164%.

In the case of `CCCCCCCCCC(=O)Nc1ccc2[nH]c(S)nc2c1` [(10)], the activity at 5 µM [1, 4] is reported as 69% and the activity at 5 µM [1, 5] is reported as 129%.

With `O=C(CSc1nc2ccccc2[nH]1)c1ccccc1O` [(43)] the activity at 5 µM [1, 4] was 45% and the activity at 5 µM [1, 5] was 98%.

Work on `CCCCCCCC(c1cc(C)cc(C2(C)CCCCC2)c1O)c1cc(C)cc(C2(C)CCCCC2)c1O` [(61)] yielded an activity at 5 µM [1, 4] of 52% and an activity at 5 µM [1, 5] of 103%.

`Cc1cc(C)c(O)c(C(CC(C)CC(C)(C)C)c2cc(C)cc(C)c2O)c1` (stereo not drawn) [(54)] showed an activity at 5 µM [1, 4] of 25% and an activity at 5 µM [1, 5] of 95%.

`Cc1cc(C)c(O)c(C(C)(C)c2cc(C)cc(C)c2O)c1` [(62)] showed an activity at 5 µM [1, 4] of 61% and an activity at 5 µM [1, 5] of 98%.

`CCOC(=O)Oc1c(C)cc(C)cc1C(c1cc(C)cc(C)c1O)C(C)C` (stereo not drawn) [(73)] showed an activity at 5 µM [1, 4] of 48% and an activity at 5 µM [1, 5] of 90%.

For `Cc1cc(C(CCc2ccccc2)c2cc(C)cc(C(C)(C)C)c2O)c(O)c(C(C)(C)C)c1` [(74)], the activity at 5 µM [1, 4] was 65% and the activity at 5 µM [1, 5] was 108%.

`CC(CC(=O)Nc1ccc2[nH]c(S)nc2c1)CC(C)(C)C` (stereo not drawn) [(23)] gave an activity at 5 µM [1, 4] of 56% and an activity at 5 µM [1, 5] of 119%.

Work on `Cc1nc2ccc([N+](=O)[O-])cc2[nH]1` [(5), 2-metyl-5-nitrobenzimidazole] yielded an activity at 5 µM [1, 4] of 67% and an activity at 5 µM [1, 5] of 89%.

With `CCC(C)(C)c1cc(C(C)c2cc(C(C)(C)CC)cc(C(C)(C)CC)c2O)c(O)c(C(C)(C)CC)c1` [(63), 2,2'-ethylidenebis(4,6-di-tert-pentylphenol)] the activity at 5 µM [1, 4] was 42% and the activity at 5 µM [1, 5] was 96%.

Work on `CC(=O)Oc1c(Cc2cc(C)cc(C(C)(C)C)c2O)cc(C)cc1C(C)(C)C` [(58)] yielded an activity at 5 µM [1, 4] of 45% and an activity at 5 µM [1, 5] of 98%.

Work on `CCCCCCCCCCCCNC(=O)c1ccc2[nH]c(S)nc2c1` [(30)] yielded an activity at 5 µM [1, 4] of 51% and an activity at 5 µM [1, 5] of 91%.

In the case of `COC(=O)CCCC(C)(C)c1cc(C)cc(Cc2cc(C)cc(C(C)(C)CCCC(=O)OC)c2O)c1O` [(67)], the activity at 5 µM [1, 4] is reported as 42% and the activity at 5 µM [1, 5] is reported as 92%.

With `c1ccc(CSc2nc3ccccc3[nH]2)cc1` [(7), 2-benzylthiobenzimidazole] the activity at 5 µM [1, 4] was 61% and the activity at 5 µM [1, 5] was 91%.

Work on `Cc1cc(C)c(O)c(Cc2cc(C(C)(C)C)cc(C(C)(C)C)c2O)c1` [(66)] yielded an activity at 5 µM [1, 4] of 54% and an activity at 5 µM [1, 5] of 108%.

Compound `CCCCCCCCCCCCCCCCSc1nc2ccccc2[nH]1` [(20)] has an activity at 5 µM [1, 4] of 49% and an activity at 5 µM [1, 5] of 62%.

Work on `Cc1cc(Cc2cc(C)cc(C(C)(C)C)c2O)c(O)c(C(C)(C)C)c1` [(52)] yielded an activity at 5 µM [1, 4] of 38% and an activity at 5 µM [1, 5] of 101%.

Work on `CCCCCCCCCCCCOC(=O)c1ccc2[nH]c(S)nc2c1` [(34)] yielded an activity at 5 µM [1, 4] of 50% and an activity at 5 µM [1, 5] of 108%.

In the case of `CCCCCCCCCCCC(=O)Nc1ccc2nc(S)[nH]c2c1` [(8), 5-dodecanoylamino-2-mercaptobenzimidazole], the LD50 (Acute toxicity test) is reported as at least 1000 mg/kg, the activity at 5 µM [1, 4] is reported as 42% and the activity at 5 µM [1, 5] is reported as 106%. For the same compound, the “fall of amount of blood total cholesterol in comparison with the control group” value (shortened to “fall”) [2] was 25% and the “fall” value (rabbit fed normal feed) was 20%.

`CCCCCCCCOc1ccc2[nH]c(S)nc2c1` [(27)] showed an activity at 5 µM [1, 4] of 51% and an activity at 5 µM [1, 5] of 78%.

Work on `Cc1cc(C(c2ccccc2)c2cc(C)cc(C(C)(C)C)c2O)c(O)c(C(C)(C)C)c1` [(60)] yielded an activity at 5 µM [1, 4] of 48% and an activity at 5 µM [1, 5] of 96%.

`CCCCCCCCCCCC(=O)Nc1ccc2[nH]cnc2c1` [(47)] gave an activity at 5 µM [1, 4] of 55% and an activity at 5 µM [1, 5] of 98%.

Compound `O=[N+]([O-])c1ccc2nc(CCCCCCCCc3nc4ccc([N+](=O)[O-])cc4[nH]3)[nH]c2c1` [(6), 1,8-bis(5-nitrobenzimidazol-2-yl) octane] has an activity at 5 µM [1, 4] of 8% and an activity at 5 µM [1, 5] of 61%.

For `CCC(C)c1cc(C(C)CC)c(O)c(C(c2cc(C(C)CC)cc(C(C)CC)c2O)C(C)C)c1` (stereo not drawn) [(65)], the activity at 5 µM [1, 4] was 38% and the activity at 5 µM [1, 5] was 101%.

Compound `Cc1cc(C)c(O)c(C(c2cc(C)cc(C)c2O)C(C)C)c1` [(53), 2,2'-isobutylidenebis(4,6-dimethyphenol)] has an LD50 (Acute toxicity test) of at least 1000 mg/kg, an activity at 5 µM [1, 4] of 56% and an activity at 5 µM [1, 5] of 92%. For the same compound, the “cholesterol deposition to the eye ball” value ([3]; after 20 weeks) was “suppressing”, the fatty liver formation ([3]; after 20 weeks) was “suppressing” and the arteriosclerosis focus formation ([3]; aortas examined after 20 weeks) was “suppresses”. For the same compound, the “fall” value [2] was 40% and the “fall” value (rabbit fed normal feed) was 20%.
